Data published in ChEMBL document CHEMBL4765264, “Design, synthesis and biological evaluation of novel 2-(5-aryl-1H-imidazol-1-yl) derivatives as potential inhibitors of the HIV-1 Vpu and host BST-2 protein interaction” (Eur J Med Chem, 2020).

Legend:
[1] = (§1) Inhibition of recombinant HIV1 Viral Protein U expressed in Escherichia coli BL21(DE3) cells/BST-2 (unknown origin) interaction at 100 uM preincubated for 30 mins with viral protein U followed by further incubation with BST-2 for 1 hr by sandwich ELISA relative to control; conditions: time 90.0 min
[2] = tested on: Human immunodeficiency virus 1; test: Antiviral activity against HIV1 LAV infected in human MT4 cells assessed as reduction in viral replication by measuring reduction in p24 expression incubated for 72 hrs by ELISA; format: functional, organism-based; conditions: Human immunodeficiency virus 1, LAV, MT4, 72 h
[3] = tested on: Human immunodeficiency virus 1; test: Antiviral activity against HIV1 infected in PBMC assessed as reduction in viral replication by measuring reduction in p24 production by ELISA; format: functional, organism-based; conditions: Human immunodeficiency virus 1, PBMC
[4] = as §1, with “recombinant biotinylated” for “recombinant”, “BL21(DE3)cells/recombinant GST-tagged BST-2” for “BL21(DE3) cells/BST-2”, “Alphascreen assay” for “sandwich ELISA”; conditions: time 90.0 min
[5] = Inhibition of recombinant biotinylated HIV1 Viral Protein U expressed in Escherichia coli BL21(DE3) cells/recombinant GST-tagged BST-2 (unknown origin) interaction preincubated for 30 mins with viral protein U followed by further incubation with BST-2 for 1 hr by Alphascreen assay
[6] = Cytotoxicity against human MT4 cells assessed as inhibition of cell viability incubated for 72 hrs by MTS assay; format: cell-based
[7] = Selectivity index, ratio of CC50 for human MT4 cells to EC50 for antiviral activity against HIV1 LAV infected in human MT4 cells; format: toxicity, cell-based; conditions: MT4 cells (CC50) and HIV1 LAV infected MT4 cells (EC50)
[8] = Aqueous solubility of the compound in phosphate buffer saline at 100 uM at wavelength of 250 nm incubated for overnight under shaking condition by filtration assay based UV-visible spectroscopy; format: physicochemical
[9] = Aqueous solubility of the compound in phosphate buffer saline at 200 uM at wavelength of 250 nm incubated for overnight under shaking condition by filtration assay based UV-visible spectroscopy; format: physicochemical

Row | Structure (SMILES) | inhibition [1] [%] | also measured
1 | CC(C)(C)c1ccc(-c2cncn2CC(=O)O)cc1 | 2 | 
2 | CCOC(=O)Cn1cncc1-c1ccc(C(C)(C)C)cc1 | 17 | 
3 | COc1cccc(-c2cncn2CC(=O)O)c1 | 30 | 
4 | Cc1nnc(C(=O)NC(C)(C)c2nc(C(=O)NCc3ccc(F)cc3)c(O)c(=O)n2C)o1 [RALTEGRAVIR] |  | EC50 [2]: 0.0079 µM; EC50 [3]: ≤ 0.008 µM
5 | O=c1cnn([C@@H]2O[C@H](CO)[C@@H](O)[C@H]2O)c(=S)[nH]1 | 54 | 
6 | COc1ccc(-c2cncn2CC(=O)O)cc1O | 0 | 
7 | NNC(=O)Cn1cncc1-c1ccc(F)cc1 | 48 | 
8 | O=C(O)Cn1cncc1-c1ccccc1 | 0 | 
9 | O=C(O)Cn1cncc1-c1ccc(F)cc1 | 11 | 
10 | CCOC(=O)Cn1cncc1-c1ccccc1 | 82 | inhibition [4]: 83%; IC50 [5]: 11.6 µM; CC50 at 72 h [6]: 184 µM; EC50 [2]: 6.3 µM; selectivity ratio [7]: 29; solubility at 100 µM [8]: ≥ 100 µM; solubility at 200 µM [9]: ≥ 200 µM
11 | CCOC(=O)Cn1cncc1-c1cccc(OC)c1 | 51 | inhibition [4]: 56%
12 | COc1ccc(-c2cncn2CC(=O)NN)cc1O | 72 | inhibition [4]: 60%
13 | O=C(O)Cn1cncc1-c1ccc2c(c1)OCO2 | 9 | 
14 | CCOC(=O)Cn1cncc1-c1ccc(OC)c(OC)c1 | 58 | inhibition [4]: 61%
15 | NNC(=O)Cn1cncc1-c1ccc2c(c1)OCO2 | 22 | 
16 | CC(C)(C)c1ccc(-c2cncn2CC(=O)NN)cc1 | 45 | 
17 | COc1ccc(-c2cncn2CC(=O)O)cc1OC | 25 | 
18 | CCOC(=O)Cn1cncc1-c1ccc2c(c1)OCO2 | 33 | 
19 | CCOC(=O)[C@H](C)n1cncc1-c1ccc(OC)c(OC)c1 | 20 | 
20 | COc1cccc(-c2cncn2CC(=O)NN)c1 | 69 | inhibition [4]: 68%; IC50 [5]: 17.6 µM; CC50 at 72 h [6]: 160 µM; EC50 [2]: 158 µM; selectivity ratio [7]: 1; solubility at 100 µM [8]: ≥ 100 µM; solubility at 200 µM [9]: ≥ 200 µM
21 | CCOC(=O)Cn1cncc1-c1ccc(F)cc1 | 54 | inhibition [4]: 55%
22 | COc1ccc(-c2cncn2CC(=O)NN)cc1OC | 28 | 
23 | NNC(=O)Cn1cncc1-c1ccccc1 | 39 | 
24 | CCOC(=O)[C@H](C)n1cncc1-c1ccccc1 | 22 | 
25 | CCOC(=O)Cn1cncc1-c1ccc(OC)c(O)c1 | 30 | 
26 | CCOC(=O)[C@H](C)n1cncc1-c1ccc(F)cc1 | 63 | inhibition [4]: 64%
